Measurements reported in patent EP0318029B1, “Cyclic amine and pharmacological composition” (Eisai Co., Ltd., priority 1987, dated 1989).

Tested on: cerebral cortex slice
Test: Glutamate liberation inhibitory activity in cerebral cortex slice
Format: cell-based, SD rat
Conditions: 10⁻⁴ M test compound; rat cerebral cortex slice, 30 min pre-incubation, then 50 mM KCl for 60 min; glutamate determined by HPLC, relative to solvent control
Protocol: Glutamate liberation inhibitory activity in cerebral cortex slice
A male SD rat was decapitated, and cerebral cortices on both sides were then extirpated to prepare a slice having a thickness of 750 µm (weight: 10 to 20 mg) with a McIlwain tissue chopper. The slice was incubated in a Krebs-Henseleit liquid containing a test compound in the form of a solution thereof for 30 minutes. Then the slice was incubated in one ml of a Krebs-Henseleit liquid containing 50 mM of KCl and the test compound solution for 60 mins. For control, a solvent was added to a Krebs-Henseleit liquid containing only 50 mM of KCl.
The glutamate liberated in the solution was determined by HPLC, and the glutamate liberation inhibitory activity (%) in 10⁻⁴ M of each test compound solution was calculated by the following equation: (1 -(glutamate in each test compound solution)/(amount of glutamate in control group)) x 100 [formula]

Structure (SMILES): O=C(CN1CCC(Oc2ccc(F)cc2)CC1)c1ccc2ccccc2c1 [compd. of Ex. 3]
- glutamate liberation inhibitory activity (%) 1 x 10⁻⁴ M: 49%
